Columns and labels:
[1] = molecular target: T1, Human V1b receptor (Homo sapiens (Human), UniProt P47901); assay: Binding Test for V1b Receptor ([3H]AVP, crude membrane preparation of 293FT cells); settings: inhibition of [3H]AVP binding (0.4 to 1 nmol/L), room temperature, 60 minutes
Summary of the method: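 Crude membranes from 293FT cells transiently expressing human V1b, incubated with [3H]AVP (0.4 to 1 nmol/L) and compound (0.01 nmol/L–1 μmol/L final) in Tris pH 7.4 with MgCl2 and 0.1% BSA, 60 min at room temperature. Bound label collected by filtration. Nonspecific binding defined with unlabeled AVP; IC50 from dose-response curve.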

[2] = molecular target: T1, Human V1b receptor; assay: Measurement of V1b Receptor Antagonistic Activity (AVP-induced Fluo-4 fluorescence in CHO cells, FDSS); type: cell-based; settings: inhibition of the response to AVP 2.5 nmol/L, CHO cells stably expressing human V1b receptor
Protocol: Measurement of V1b Receptor Antagonistic Activity
CHO cells (ATCC) so modified as to express human V1b receptor in a stable manner were cultured in Ham's F-12 medium (containing 10% FBS and 0.5 mg/mL Geneticin). On the day before the test, seeding was conducted at a density of 20,000 cells/well in a 96-well poly-D-lysine coated black plate. On the day of the test, the culture medium was removed, and a loading solution (1×HBSS, 10 mmol/L HEPES, 0.1% bovine serum albumin, 1.25 mmol/L Probenecid, 0.02% Pluronic F-127, 1.5 μmol/L Fluo-4-AM, pH 7.4) was added to each well, followed by incubation in a CO2 incubator for an hour. After the incubation, the loading solution was removed. A test solution (1×HBSS, 10 mmol/L HEPES, 0.1% bovine serum albumin, 1.25 mmol/L Probenecid, pH 7.4) containing any one of test compounds was added to wells, followed by incubation in a CO2 incubator for 30 minutes. The test compound was serially diluted with DMSO so that it would have final concentrations of 0.1 nmol/L to […] at the time of assaying. After the incubation, fluorescence intensity levels were measured and AVP added by means of FDSS (Hamamatsu Photonics K.K.); AVP was added to give a final concentration of 2.5 nmol/L at the time of assaying. […] The fluorescence level in a well to which neither test compound nor AVP was added was defined as 0%, and the fluorescence level in a well to which only AVP was added and no test compound was added was defined as 100%. A dose-response curve was plotted from fluorescence levels after the addition of AVP in the presence of a test compound at various concentrations, and the 50% inhibitory concentration (IC50 value) of the compound was calculated.

T1 sequence (P47901 whole entry): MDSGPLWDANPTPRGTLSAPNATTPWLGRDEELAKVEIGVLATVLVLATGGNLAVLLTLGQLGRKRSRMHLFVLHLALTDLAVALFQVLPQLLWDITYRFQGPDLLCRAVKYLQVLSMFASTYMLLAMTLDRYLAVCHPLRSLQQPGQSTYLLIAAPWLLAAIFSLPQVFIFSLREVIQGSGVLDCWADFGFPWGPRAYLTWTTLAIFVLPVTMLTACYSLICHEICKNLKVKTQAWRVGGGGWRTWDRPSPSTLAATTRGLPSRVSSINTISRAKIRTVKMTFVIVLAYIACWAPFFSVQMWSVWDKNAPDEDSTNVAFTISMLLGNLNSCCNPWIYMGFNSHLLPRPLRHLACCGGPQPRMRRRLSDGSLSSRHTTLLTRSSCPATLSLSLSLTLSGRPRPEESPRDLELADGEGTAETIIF

Row | SMILES | IC50 [1] [nM] | IC50 [2] [nM]
1 | CC(C)NC(=O)Cn1cc(-c2ccc(CCN3CCOCC3)cc2)nc1-c1cccc(Cl)c1 [Example A-02, 2-[2-(3-chlorophenyl)-4-{4-[2-(morpholin-4-yl)ethyl]phenyl}-1H-imidazol-1-yl]-N-(propan-2-yl)acetamide] | 3.7 | 3.2
2 | CC(C)NC(=O)Cn1nc(-c2ccc(CCN3CCOCC3)cc2)nc1-c1cccc(Cl)c1 [Example B-02, 2-[5-(3-chlorophenyl)-3-{4-[2-(morpholin-4-yl)ethyl]phenyl}-1H-1,2,4-triazol-1-yl]-N-(propan-2-yl)acetamide] | 2.2 | 10
3 | CC(C)NC(=O)Cc1oc(-c2ccc(CCN3CC4(COC4)C3)cc2)nc1-c1cccc(Cl)c1 [Example C-12, 2-[4-(3-chlorophenyl)-2-{4-[2-(2-oxa-6-azaspiro[3.3]hept-6-yl)ethyl]phenyl}-1,3-oxazol-5-yl]-N-(propan-2-yl)acetamide] | 4.3 | 32
4 | CC(C)NC(=O)Cc1nn(-c2ccc(CCN3CCOCC3)cc2)c(=O)n1-c1cccc(Cl)c1 [Example D-01, 2-[4-(3-chlorophenyl)-1-{4-[2-(morpholin-4-yl)ethyl]phenyl}-5-oxo-4,5-dihydro-1H-1,2,4-triazol-3-yl]-N-(propan-2-yl)acetamide] | 15 | 21
5 | CC(C)(C)NC(=O)Cc1nn(-c2ccc(CCN3CCOCC3)cc2)c(=O)n1-c1cccc(Cl)c1 [Example D-13, N-tert-butyl-2-[4-(3-chlorophenyl)-1-{4-[2-(morpholin-4-yl)ethyl]phenyl}-5-oxo-4,5-dihydro-1H-1,2,4-triazol-3-yl]acetamide] | 3.5 | 13
6 | CC(C)(C)NC(=O)Cc1nn(-c2ccc(CCN3C4CCC3COC4)cc2)c(=O)n1-c1cccc(Cl)c1 [Example D-14, N-tert-butyl-2-[4-(3-chlorophenyl)-1-{4-[2-(3-oxa-8-azabicyclo[3.2.1]oct-8-yl)ethyl]phenyl}-5-oxo-4,5-dihydro-1H-1,2,4-triazol-3-yl]acetamide] | 4.7 | 12
7 | CC(C)NC(=O)Cc1nn(-c2ccc(CC(C)N3C4CCC3COC4)cc2)c(=O)n1-c1cccc(Cl)c1 [Example D-18, 2-[4-(3-chlorophenyl)-1-{4-[2-(3-oxa-8-azabicyclo[3.2.1]oct-8-yl)propyl]phenyl}-5-oxo-4,5-dihydro-1H-1,2,4-triazol-3-yl]-N-(propan-2-yl)acetamide] | 1.5 | 0.65
8 | COC1CCCN(CCc2ccc(-n3nc(CC(=O)NC(C)C)n(-c4cccc(Cl)c4)c3=O)cc2)C1 [Example D-50, 2-[4-(3-chlorophenyl)-1-{4-[2-(3-methoxypiperidin-1-yl)ethyl]phenyl}-5-oxo-4,5-dihydro-1H-1,2,4-triazol-3-yl]-N-(propan-2-yl)acetamide] | 100 to 1000 | 
9 | CC(C)NC(=O)Cc1nn(-c2ccc(CCN3CCC4CCCCC4C3)cc2)c(=O)n1-c1cccc(Cl)c1 [Example D-51, 2-[4-(3-chlorophenyl)-1-{4-[2-(octahydroisoquinolin-2(1H)-yl)ethyl]phenyl}-5-oxo-4,5-dihydro-1H-1,2,4-triazol-3-yl]-N-(propan-2-yl)acetamide] | 100 to 1000 | 
10 | CC(C)NC(=O)Cc1nn(-c2ccc(CCN3C[C@@H](C)O[C@@H](C)C3)cc2)c(=O)n1-c1cccc(Cl)c1 [Example D-52, 2-[4-(3-chlorophenyl)-1-(4-{2-[(2R,6S)-2,6-dimethylmorpholin-4-yl]ethyl}phenyl)-5-oxo-4,5-dihydro-1H-1,2,4-triazol-3-yl]-N-(propan-2-yl)acetamide] | 100 to 1000 | 
11 | CC(C)NC(=O)Cc1nn(-c2ccc(CCN3CCOCC3C)cc2)c(=O)n1-c1cccc(Cl)c1 [Example D-53, 2-[4-(3-chlorophenyl)-1-{4-[2-(3-methylmorpholin-4-yl)ethyl]phenyl}-5-oxo-4,5-dihydro-1H-1,2,4-triazol-3-yl]-N-(propan-2-yl)acetamide] | 10 to 100 | 
12 | CCC1COCCN1CCc1ccc(-n2nc(CC(=O)NC(C)C)n(-c3cccc(Cl)c3)c2=O)cc1 [Example D-54, 2-[4-(3-chlorophenyl)-1-{4-[2-(3-ethylmorpholin-4-yl)ethyl]phenyl}-5-oxo-4,5-dihydro-1H-1,2,4-triazol-3-yl]-N-(propan-2-yl)acetamide] | 10 to 100 | 
13 | CC(C)NC(=O)Cc1nn(-c2ccc(CCN3CCC(C)(O)CC3)cc2)c(=O)n1-c1cccc(Cl)c1 [Example D-55, 2-[4-(3-chlorophenyl)-1-{4-[2-(4-hydroxy-4-methylpiperidin-1-yl)ethyl]phenyl}-5-oxo-4,5-dihydro-1H-1,2,4-triazol-3-yl]-N-(propan-2-yl)acetamide] | 100 to 1000 | 
14 | CC(C)NC(=O)Cc1nn(-c2ccc(CCN3CC4(CCOCC4)C3)cc2)c(=O)n1-c1cccc(Cl)c1 [Example D-56, 2-[4-(3-chlorophenyl)-1-{4-[2-(7-oxa-2-azaspiro[3.5]non-2-yl)ethyl]phenyl}-5-oxo-4,5-dihydro-1H-1,2,4-triazol-3-yl]-N-(propan-2-yl)acetamide] | 10 to 100 | 
15 | CC(C)NC(=O)Cc1nn(-c2ccc(CCN3CCC(F)CC3)cc2)c(=O)n1-c1cccc(Cl)c1 [Example D-57, 2-[4-(3-chlorophenyl)-1-{4-[2-(4-fluoropiperidin-1-yl)ethyl]phenyl}-5-oxo-4,5-dihydro-1H-1,2,4-triazol-3-yl]-N-(propan-2-yl)acetamide] | 10 to 100 | 
16 | CC(C)NC(=O)Cc1nn(-c2ccc(CCN3CCC(F)(F)CC3)cc2)c(=O)n1-c1cccc(Cl)c1 [Example D-58, 2-[4-(3-chlorophenyl)-1-{4-[2-(4,4-difluoropiperidin-1-yl)ethyl]phenyl}-5-oxo-4,5-dihydro-1H-1,2,4-triazol-3-yl]-N-(propan-2-yl)acetamide] | 10 to 100 | 
17 | CC(C)NC(=O)Cc1nn(-c2ccc(CCN3CCC(C(F)(F)F)CC3)cc2)c(=O)n1-c1cccc(Cl)c1 [Example D-59, 2-[4-(3-chlorophenyl)-5-oxo-1-(4-{2-[4-(trifluoromethyl)piperidin-1-yl]ethyl}phenyl)-4,5-dihydro-1H-1,2,4-triazol-3-yl]-N-(propan-2-yl)acetamide] | 100 to 1000 | 
18 | CC(C)NC(=O)Cc1nn(-c2ccc(CCN3C(C)COCC3C)cc2)c(=O)n1-c1cccc(Cl)c1 [Example D-60, 2-[4-(3-chlorophenyl)-1-{4-[2-(3,5-dimethylmorpholin-4-yl)ethyl]phenyl}-5-oxo-4,5-dihydro-1H-1,2,4-triazol-3-yl]-N-(propan-2-yl)acetamide] | 100 to 1000 | 
19 | CC(C)NC(=O)Cc1nn(-c2ccc(CCN3CC4(COC4)C3)cc2)c(=O)n1-c1cccc(Cl)c1 [Example D-61, 2-[4-(3-chlorophenyl)-1-{4-[2-(2-oxa-6-azaspiro[3.3]hept-6-yl)ethyl]phenyl}-5-oxo-4,5-dihydro-1H-1,2,4-triazol-3-yl]-N-(propan-2-yl)acetamide] | 10 to 100 | 

From patent US9522914B2, “Azole derivative” (TAISHO PHARMACEUTICAL CO., LTD, priority 2011, dated 2016)
